Assay results published in ChEMBL document CHEMBL1201862, “PubChem BioAssay data set” (2004).
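Method: 48-hour compound exposure of cells in 96-well plates, five concentrations, linear interpolation of endpoints. GI50 marks 50% less growth.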 Active and inactive are the calls of the source. No stated cut-off is given here; in the data, active = GI50 up to about 1.1 µM and inactive = higher.

How the values were obtained:
Test in all cases: NCI anticancer screen, dose series, 48 h
A498 = system: A498
A549 = system: A549
ACHN = system: ACHN
BT-549 = system: BT-549
CAKI-1 = system: CAKI-1
COLO 205 = system: COLO 205
DU-145 = system: DU-145
EKVX = system: EKVX
HCC 2998 = system: HCC 2998
HCT-15 = system: HCT-15
HL-60 = system: HL-60
HOP-62 = system: HOP-62
HOP-92 = system: HOP-92
HT-29 = system: HT-29
Hs-578T = system: Hs-578T
IGROV-1 = system: IGROV-1
K562 = system: K562
KM12 = system: KM12
M14 = system: M14
MDA-MB-231 = system: MDA-MB-231
MDA-MB-435 = system: MDA-MB-435
MDA-N = system: MDA-N
MOLT-4 = system: MOLT-4
Malme-3M = system: Malme-3M
NCI-H226 = system: NCI-H226
NCI-H23 = system: NCI-H23
NCI-H460 = system: NCI-H460
NCI-H522 = system: NCI-H522
NCI/ADR-RES = system: NCI/ADR-RES
OVCAR-3 = system: OVCAR-3
OVCAR-4 = system: OVCAR-4
OVCAR-5 = system: OVCAR-5
OVCAR-8 = system: OVCAR-8
PC-3 = system: PC-3
RPMI-8226 = system: RPMI-8226
SF-268 = system: SF-268
SK-MEL-28 = system: SK-MEL-28
SK-MEL-2 = system: SK-MEL-2
SK-MEL-5 = system: SK-MEL-5
SN12C = system: SN12C
SNB-19 = system: SNB-19
SNB-75 = system: SNB-75
SR = system: SR
SW-620 = system: SW-620
T47D = system: T47D
TK-10 = system: TK-10
U-251 = system: U-251
UACC-257 = system: UACC-257
UO-31 = system: UO-31
786-0 = system: 786-0
CCRF-CEM = system: CCRF-CEM
HCT-116 = system: HCT-116
LOX IMVI = system: LOX IMVI
MCF7 = system: MCF7
RXF 393 = system: RXF 393
SF-295 = system: SF-295
SF-539 = system: SF-539
SK-OV-3 = system: SK-OV-3
UACC-62 = system: UACC-62

For `COC(=O)/C=C\n1ncc(=O)[nH]c1=O`, the GI50 (A498) was > 100 µM (inactive), the GI50 (A549) was > 100 µM (inactive) and the GI50 (ACHN) was > 100 µM (inactive). The GI50 (BT-549) was > 100 µM (inactive), the GI50 (CAKI-1) was > 100 µM (inactive) and the GI50 (COLO 205) was > 100 µM (inactive). The GI50 (DU-145) was > 100 µM (inactive), the GI50 (EKVX) was > 100 µM (inactive) and the GI50 (HCC 2998) was > 100 µM (inactive). The GI50 (HCT-15) was over 100 µM, the GI50 (HL-60) was > 100 µM (inactive) and the GI50 (HOP-62) was > 100 µM (inactive). For the same molecule, the GI50 (HOP-92) was > 100 µM (inactive), the GI50 (HT-29) was > 100 µM (inactive) and the GI50 (Hs-578T) was > 100 µM (inactive). The GI50 (IGROV-1) was > 100 µM (inactive), the GI50 (K562) was > 100 µM (inactive) and the GI50 (KM12) was > 10 µM (inactive). The GI50 (M14) was > 100 µM (inactive), the GI50 (MDA-MB-231) was > 100 µM (inactive) and the GI50 (MDA-MB-435) was 99.5 µM (inactive). For the same molecule, the GI50 (MDA-N) was > 100 µM (inactive), the GI50 (MOLT-4) was > 100 µM (inactive) and the GI50 (Malme-3M) was > 100 µM (inactive). The GI50 (NCI-H226) was > 100 µM (inactive), the GI50 (NCI-H23) was > 100 µM (inactive) and the GI50 (NCI-H460) was > 100 µM (inactive). The GI50 (NCI-H522) was 52.1 µM (inactive), the GI50 (NCI/ADR-RES) was > 100 µM (inactive) and the GI50 (OVCAR-3) was > 100 µM (inactive). For the same molecule, the GI50 (OVCAR-4) was > 100 µM (inactive), the GI50 (OVCAR-5) was > 100 µM (inactive) and the GI50 (OVCAR-8) was > 100 µM (inactive). For the same molecule, the GI50 (PC-3) was > 100 µM (inactive), the GI50 (RPMI-8226) was > 100 µM (inactive) and the GI50 (SF-268) was > 100 µM (inactive). The GI50 (SK-MEL-28) was > 100 µM (inactive), the GI50 (SK-MEL-2) was > 100 µM (inactive) and the GI50 (SK-MEL-5) was > 100 µM (inactive). The GI50 (SN12C) was > 100 µM (inactive), the GI50 (SNB-19) was > 100 µM (inactive) and the GI50 (SNB-75) was > 100 µM (inactive). For the same molecule, the GI50 (SR) was > 10 µM (inactive), the GI50 (SW-620) was > 100 µM (inactive) and the GI50 (T47D) was > 100 µM (inactive). The GI50 (TK-10) was > 100 µM (inactive), the GI50 (U-251) was > 100 µM (inactive) and the GI50 (UACC-257) was > 100 µM (inactive). For the same molecule, the GI50 (UO-31) was > 100 µM (inactive).
For `C/C(=N\Nc1nc2ccccc2n1C)c1cc2ccccc2cn1`, the GI50 (786-0) was < 0.0173 µM (active), the GI50 (A498) was 0.194 µM (active) and the GI50 (A549) was 0.0327 µM (active). For the same molecule, the GI50 (ACHN) was < 0.01 µM (active), the GI50 (BT-549) was 2.8 µM (inactive) and the GI50 (CAKI-1) was < 0.01 µM (active). The GI50 (CCRF-CEM) was 0.0161 µM (active), the GI50 (COLO 205) was < 0.01 µM (active) and the GI50 (DU-145) was 1.58 µM (inactive). For the same molecule, the GI50 (EKVX) was < 0.0111 µM (active), the GI50 (HCC 2998) was 11.6 µM (inactive) and the GI50 (HCT-116) was < 0.01 µM (active). For the same molecule, the GI50 (HCT-15) was under 0.01 µM, the GI50 (HL-60) was 0.0103 µM (active) and the GI50 (HOP-62) was 0.153 µM (active). The GI50 (HOP-92) was 0.321 µM (active), the GI50 (HT-29) was < 0.0118 µM (active) and the GI50 (Hs-578T) was 0.0933 µM (active). The GI50 (IGROV-1) was < 0.0128 µM (active), the GI50 (K562) was < 0.0135 µM (active) and the GI50 (KM12) was < 0.025 µM (active). The GI50 (LOX IMVI) was 0.0305 µM (active), the GI50 (M14) was < 0.0335 µM (active) and the GI50 (MCF7) was < 0.01 µM (active). The GI50 (MDA-MB-231) was < 0.01 µM (active), the GI50 (MDA-MB-435) was 0.295 µM (active) and the GI50 (MDA-N) was 0.176 µM (active). The GI50 (MOLT-4) was < 0.01 µM (active), the GI50 (Malme-3M) was < 0.01 µM (active) and the GI50 (NCI-H226) was 0.0448 µM (active). The GI50 (NCI-H23) was < 0.0172 µM (active), the GI50 (NCI-H460) was 0.0653 µM (active) and the GI50 (NCI-H522) was < 0.01 µM (active). The GI50 (NCI/ADR-RES) was < 0.0182 µM (active), the GI50 (OVCAR-4) was 0.0423 µM (active) and the GI50 (OVCAR-8) was < 0.0182 µM (active). The GI50 (RPMI-8226) was < 0.01 µM (active), the GI50 (RXF 393) was 0.229 µM (active) and the GI50 (SF-268) was < 0.0294 µM (active). For the same molecule, the GI50 (SF-295) was 0.144 µM (active), the GI50 (SF-539) was 0.441 µM (active) and the GI50 (SK-MEL-28) was 0.213 µM (active). For the same molecule, the GI50 (SK-MEL-2) was 0.805 µM (active), the GI50 (SK-MEL-5) was 0.0286 µM (active) and the GI50 (SK-OV-3) was 0.0339 µM (active). The GI50 (SN12C) was < 0.01 µM (active), the GI50 (SNB-19) was 0.352 µM (active) and the GI50 (SNB-75) was 1.14 µM (inactive). For the same molecule, the GI50 (SR) was < 0.0169 µM (active), the GI50 (SW-620) was < 0.0118 µM (active) and the GI50 (T47D) was < 0.0447 µM (active). The GI50 (U-251) was < 0.0275 µM (active), the GI50 (UACC-257) was < 0.0105 µM (active) and the GI50 (UACC-62) was 0.0403 µM (active). For the same molecule, the GI50 (UO-31) was < 0.01 µM (active).
`O=C(Nc1ccccc1)N1CCN(C(=O)Nc2ccccc2)C1=S` was tested, and the GI50 (786-0) was 37 µM (inactive), the GI50 (A498) was 0.0652 µM (active) and the GI50 (A549) was > 100 µM (inactive). The GI50 (ACHN) was 8.57 µM (inactive), the GI50 (BT-549) was 30.4 µM (inactive) and the GI50 (CAKI-1) was 41.7 µM (inactive). The GI50 (CCRF-CEM) was 97.7 µM (inactive), the GI50 (COLO 205) was > 100 µM (inactive) and the GI50 (DU-145) was > 100 µM (inactive). The GI50 (EKVX) was > 100 µM (inactive), the GI50 (HCC 2998) was > 100 µM (inactive) and the GI50 (HCT-116) was 47.6 µM (inactive). For the same molecule, the GI50 (HCT-15) was 88.5 µM, the GI50 (HL-60) was 29.3 µM (inactive) and the GI50 (HOP-62) was 25.2 µM (inactive). For the same molecule, the GI50 (HOP-92) was 29 µM (inactive), the GI50 (HT-29) was > 100 µM (inactive) and the GI50 (Hs-578T) was 35.9 µM (inactive). For the same molecule, the GI50 (IGROV-1) was 49 µM (inactive), the GI50 (K562) was > 100 µM (inactive) and the GI50 (KM12) was > 100 µM (inactive). For the same molecule, the GI50 (LOX IMVI) was > 100 µM (inactive), the GI50 (M14) was 56.4 µM (inactive) and the GI50 (MDA-MB-231) was > 100 µM (inactive). The GI50 (MDA-MB-435) was > 100 µM (inactive), the GI50 (MDA-N) was > 100 µM (inactive) and the GI50 (MOLT-4) was > 100 µM (inactive). For the same molecule, the GI50 (Malme-3M) was > 100 µM (inactive), the GI50 (NCI-H226) was 28.1 µM (inactive) and the GI50 (NCI-H23) was 22.3 µM (inactive). The GI50 (NCI-H460) was 65 µM (inactive), the GI50 (NCI-H522) was 90.2 µM (inactive) and the GI50 (NCI/ADR-RES) was 41.9 µM (inactive). The GI50 (OVCAR-3) was > 100 µM (inactive), the GI50 (OVCAR-4) was 55.7 µM (inactive) and the GI50 (OVCAR-8) was 34.6 µM (inactive). The GI50 (RPMI-8226) was > 100 µM (inactive), the GI50 (RXF 393) was 19.9 µM (inactive) and the GI50 (SF-268) was 20 µM (inactive). For the same molecule, the GI50 (SF-295) was 23.4 µM (inactive), the GI50 (SF-539) was 18.5 µM (inactive) and the GI50 (SK-MEL-28) was > 100 µM (inactive). For the same molecule, the GI50 (SK-MEL-2) was > 100 µM (inactive), the GI50 (SK-MEL-5) was > 100 µM (inactive) and the GI50 (SK-OV-3) was 28.6 µM (inactive). The GI50 (SN12C) was 59.3 µM (inactive), the GI50 (SNB-75) was 17.9 µM (inactive) and the GI50 (SR) was > 100 µM (inactive). The GI50 (SW-620) was > 100 µM (inactive), the GI50 (T47D) was 40.9 µM (inactive) and the GI50 (TK-10) was 38.5 µM (inactive). For the same molecule, the GI50 (U-251) was > 100 µM (inactive), the GI50 (UACC-257) was > 100 µM (inactive) and the GI50 (UO-31) was 23.7 µM (inactive).
